Source: ChEMBL document CHEMBL4184107, “Structure based design of nicotinamide phosphoribosyltransferase (NAMPT) inhibitors from a phenotypic screen” (Bioorg Med Chem Lett, 2018)

Assays:
[1] = Permeability of the compound by PAMPA; type: ADME
[2] = Clearance in mouse liver microsomes; type: ADME, microsome; conditions: read-out: CLH
[3] = Cmax in nude mouse at 15 mg/kg, po by HPLC-MS/MS analysis; type: ADME, organism-based; parameters: dose 15 mg/kg, route oral; conditions: in vivo
[4] = AUC in nude mouse at 15 mg/kg, po by HPLC-MS/MS analysis; type: ADME, organism-based; conditions: in vivo
[5] = Tmax in nude mouse at 15 mg/kg, po by HPLC-MS/MS analysis; type: ADME, organism-based; conditions: in vivo
[6] = Half life in mouse microsomes; type: ADME, Microsome
[7] = Oral bioavailability in nude mouse at 10 mg/kg by HPLC-MS/MS analysis; type: ADME, organism-based; conditions: in vivo
[8] = Tmax in nude mouse at 10 mg/kg, po by HPLC-MS/MS analysis; type: ADME, organism-based; conditions: in vivo
[9] = Volume of distribution at steady state in nude mouse at 1 mg/kg, iv by HPLC-MS/MS analysis; type: ADME, organism-based; conditions: in vivo, read-out: Vdss
[10] = AUC in nude mouse at 10 mg/kg, po by HPLC-MS/MS analysis; type: ADME, organism-based; conditions: in vivo
[11] = AUC in nude mouse at 1 mg/kg, iv by HPLC-MS/MS analysis; type: ADME, organism-based; conditions: in vivo
[12] = Cmax in nude mouse at 10 mg/kg, po by HPLC-MS/MS analysis; type: ADME, organism-based; parameters: dose 10 mg/kg, route oral; conditions: in vivo
[13] = Clearance in nude mouse at 1 mg/kg, iv by HPLC-MS/MS analysis; type: ADME, organism-based; conditions: in vivo
[14] = Half life in nude mouse at 1 mg/kg, iv by HPLC-MS/MS analysis; type: ADME, organism-based; conditions: in vivo

permeability [1]	microsomal CLint [2] [µL/min/mg]	SMILES	other results
Permeable	13.7	C[C@H](NC(=O)c1ccc(F)cc1)c1ccc(NC(=O)[C@H]2C[C@@H]2c2cccnc2)cc1	
Impermeable	43.2	COCC(=O)N[C@@H](C)c1ccc(NC(=O)[C@H]2C[C@@H]2c2cccnc2)cc1	
		O=C(NCc1ccc(S(=O)(=O)c2cccc(Cl)c2)cc1)c1cc2cnccc2[nH]1	Cmax [3]: 2.07 µM; AUC [4]: 9.2 µM·h; Tmax [5]: 1 h
Permeable	65.4	C[C@H](NC(=O)[C@@H]1CCCN1C)c1ccc(NC(=O)[C@H]2C[C@@H]2c2cccnc2)cc1	
Impermeable	53	C[C@H](NC(=O)c1ccc(C#N)cc1)c1ccc(NC(=O)[C@H]2C[C@@H]2c2cccnc2)cc1	
Impermeable	83.7	C[C@H](NC(=O)CC(F)(F)F)c1ccc(NC(=O)[C@H]2C[C@@H]2c2cccnc2)cc1	
Impermeable		C[C@H](NC(=O)c1ccc(CN2CCOCC2)cc1)c1ccc(NC(=O)[C@H]2C[C@@H]2c2cccnc2)cc1	half-life [6]: 7.67 h
Permeable	148	C[C@H](NC(=O)c1ccccc1)c1ccc(NC(=O)[C@H]2C[C@@H]2c2cccnc2)cc1	bioavailability [7]: 31%; Tmax [8]: 0.5 h; Vd [9]: 0.5 L/kg; AUC [10]: 19.2 µM·h; AUC [11]: 6.18 µM·h; Cmax [12]: 12.7 µM; clearance [13]: 6.8 mL/min/kg; half-life [14]: 1.5 h
Impermeable	25.1	C[C@H](NC(=O)C1CCOCC1)c1ccc(NC(=O)[C@H]2C[C@@H]2c2cccnc2)cc1	
Permeable	< 3.42	C[C@H](NC(=O)c1ccccn1)c1ccc(NC(=O)[C@H]2C[C@@H]2c2cccnc2)cc1	
Impermeable		CCC(=O)N[C@@H](C)c1ccc(NC(=O)[C@H]2C[C@@H]2c2cccnc2)cc1	half-life [6]: 35 h
Permeable	38.4	C[C@H](NC(=O)c1ncccn1)c1ccc(NC(=O)[C@H]2C[C@@H]2c2cccnc2)cc1	
